In ChEMBL document CHEMBL4359904, “Structural tuning of acridones for developing anticancer agents targeting dihydrofolate reductase” (Bioorg Med Chem Lett, 2019):
pKi: −log10 of the molar value. Calls of active or inactive are those of the source. The rule behind the calls is not given here.

Key:
COLO 205 = test: Growth inhibition of human COLO205 cells incubated for 48 hrs by sulforhodamine B assay; format: functional; conditions: COLO 205, 48 h
NCI-H460 = test: Growth inhibition of human NCI-H460 cells at 10^-5 M cells incubated for 48 hrs by sulforhodamine B assay relative to control; format: functional
SK-MEL-28 = test: Growth inhibition of human SK-MEL-28 cells incubated for 48 hrs by sulforhodamine B assay; format: functional; conditions: SK-MEL-28, 48 h
BT-549 = test: Growth inhibition of human BT549 cells incubated for 48 hrs by sulforhodamine B assay; format: functional; conditions: BT-549, 48 h
OVCAR-5 = test: Growth inhibition of human OVCAR5 cells at 10^-5 M incubated for 48 hrs by sulforhodamine B assay relative to control; format: functional; conditions: OVCAR-5, 48 h, read-out: GI
MOLT-4 = test: Growth inhibition of human MOLT4 cells incubated for 48 hrs by sulforhodamine B assay; format: functional; conditions: MOLT-4, 48 h
MCF7 = test: Growth inhibition of human MCF7 cells incubated for 48 hrs by sulforhodamine B assay; format: functional; conditions: MCF7, 48 h
SF-295 = test: Growth inhibition of human SF295 cells incubated for 48 hrs by sulforhodamine B assay; format: functional; conditions: SF-295, 48 h
[1] = test system: Panel NCI-60 (60 carcinoma cell lines); test: Therapeutic index, ratio of LC50 for human NCI60 cells to GI50 for human NCI60 cells measured after 48 hrs by sulforhodamine B assay; format: functional
HOP-92 = test: Growth inhibition of human HOP92 cells incubated for 48 hrs by sulforhodamine B assay; format: functional; conditions: HOP-92, 48 h
NCI-H322M = test: Growth inhibition of human NCI-H322M cells incubated for 48 hrs by sulforhodamine B assay; format: functional
SN12C = test: Growth inhibition of human SN12C cells incubated for 48 hrs by sulforhodamine B assay; format: functional
UACC-257 = test: Growth inhibition of human UACC257 cells incubated for 48 hrs by sulforhodamine B assay; format: functional; conditions: UACC-257, 48 h
MDA-MB-468 = test: Growth inhibition of human MDA-MB-468 cells incubated for 48 hrs by sulforhodamine B assay; format: functional; conditions: MDA-MB-468, 48 h
UO-31 = test: Growth inhibition of human UO31 cells incubated for 48 hrs by sulforhodamine B assay; format: functional; conditions: UO-31, 48 h
OVCAR-4 = test: Growth inhibition of human OVCAR4 cells incubated for 48 hrs by sulforhodamine B assay; format: functional; conditions: OVCAR-4, 48 h
HCT-15 = test: Growth inhibition of human HCT15 cells incubated for 48 hrs by sulforhodamine B assay; format: functional; conditions: HCT-15, 48 h
C6 = test: Cell cycle arrest in rat C6 cells assessed as decrease in cell population at G2/M phase measured after 24 hrs by propidium iodide staining based flow cytometry analysis; format: functional
IGROV-1 = test: Growth inhibition of human IGROV1 cells at 10^-5 M incubated for 48 hrs by sulforhodamine B assay relative to control; format: functional; conditions: IGROV-1, 48 h, read-out: GI
Dihydrofolate reductase = biological target: T1, Dihydrofolate reductase (Homo sapiens, UniProt P00374); test: Inhibition of human dihydrofolate reductase assessed as inhibition constant by UV-Vis spectra based Benesi Hilebrand equation analysis
T1 sequence (P00374 whole entry): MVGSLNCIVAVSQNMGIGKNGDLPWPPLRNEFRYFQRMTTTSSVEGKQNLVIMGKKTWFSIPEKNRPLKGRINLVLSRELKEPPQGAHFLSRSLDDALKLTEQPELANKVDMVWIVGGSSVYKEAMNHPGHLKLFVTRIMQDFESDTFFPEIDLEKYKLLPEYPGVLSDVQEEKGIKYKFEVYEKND

A549 = test: Growth inhibition of human A549/ATCC cells incubated for 48 hrs by sulforhodamine B assay; format: functional; conditions: A549, 48 h
CAKI-1 = test: Growth inhibition of human Caki1 cells incubated for 48 hrs by sulforhodamine B assay; format: functional; conditions: CAKI-1, 48 h
HT-29 = test: Growth inhibition of human HT-29 cells at 10^-5 M incubated for 48 hrs by sulforhodamine B assay relative to control; format: functional; conditions: HT-29, 48 h, read-out: GI
SW-620 = test: Growth inhibition of human SW620 cells incubated for 48 hrs by sulforhodamine B assay; format: functional; conditions: SW-620, 48 h
ACHN = test: Growth inhibition of human ACHN cells incubated for 48 hrs by sulforhodamine B assay; format: functional
NCI-H522 = test: Growth inhibition of human NCI-H522 cells incubated for 48 hrs by sulforhodamine B assay; format: functional; conditions: NCI-H522, 48 h
OVCAR-8 = test: Growth inhibition of human OVCAR8 cells incubated for 48 hrs by sulforhodamine B assay; format: functional; conditions: OVCAR-8, 48 h
SNB-19 = test: Growth inhibition of human SNB19 cells incubated for 48 hrs by sulforhodamine B assay; format: functional; conditions: SNB-19, 48 h
MDA-MB-435 = test: Growth inhibition of human MDA-MB-435 cells incubated for 48 hrs by sulforhodamine B assay; format: functional; conditions: MDA-MB-435, 48 h
[2] = read-out: pLC50 (the source's name) (converted)
[3] = read-out: LC50 (the source's name)

`O=C(OC[C@@H]1CO1)c1cccc2c(=O)c3ccccc3[nH]c12` was tested, and the GI50 (COLO 205) was 1.48 µM, the CC50 (COLO 205; [2]) was 33.9 µM and the TGI (COLO 205; read-out: pTGI (converted)) was 4.17 µM. The “growth inhibition (GI)” value (NCI-H460) was 100%, the GI50 (SK-MEL-28) was 2.4 µM and the CC50 (SK-MEL-28; [2]) was over 100 µM. It also gave a TGI (SK-MEL-28; read-out: pTGI (converted)) of 5.75 µM, a GI50 (BT-549) of 1.91 µM and a CC50 (BT-549; [2]) of over 100 µM. It also gave a TGI (BT-549; read-out: pTGI (converted)) of 6.03 µM, an inhibition of growth at 10 µM (OVCAR-5) of 100% and a GI50 (MOLT-4; read-out: GI50) of 0.28 µM. The CC50 (MOLT-4; [3]) was over 100 µM, the GI50 (MOLT-4; read-out: pGI50 (converted)) was 0.288 µM and the CC50 (MOLT-4; [2]) was over 100 µM. The TGI (MOLT-4; read-out: pTGI (converted)) was 2.34 µM, the GI50 (MCF7; read-out: GI50) was 0.38 µM and the CC50 (MCF7; [3]) was over 100 µM. It also gave a GI50 (MCF7; read-out: pGI50 (converted)) of 0.389 µM, a CC50 (MCF7; [2]) of over 100 µM and a TGI (MCF7; read-out: pTGI (converted)) of 2.95 µM. For the same molecule, the GI50 (SF-295) was 2.88 µM, the CC50 (SF-295; [2]) was over 100 µM and the TGI (SF-295; read-out: pTGI (converted)) was 9.55 µM. For the same molecule, the TI [1] was 126, the GI50 (HOP-92) was 2.04 µM and the CC50 (HOP-92; [2]) was over 100 µM. The TGI (HOP-92; read-out: pTGI (converted)) was 5.25 µM, the GI50 (NCI-H322M) was 2.19 µM and the CC50 (NCI-H322M; [2]) was over 100 µM. For the same molecule, the TGI (NCI-H322M; read-out: pTGI (converted)) was 5.89 µM, the GI50 (SN12C) was 1.82 µM and the CC50 (SN12C; [2]) was 41.7 µM. The TGI (SN12C; read-out: pTGI (converted)) was 7.08 µM, the GI50 (UACC-257) was 2.09 µM and the CC50 (UACC-257; [2]) was 9.55 µM. For the same molecule, the TGI (UACC-257; read-out: pTGI (converted)) was 4.47 µM, the GI50 (MDA-MB-468) was 1.82 µM and the CC50 (MDA-MB-468; [2]) was 7.94 µM. The TGI (MDA-MB-468; read-out: pTGI (converted)) was 3.8 µM, the GI50 (UO-31) was 1.74 µM and the CC50 (UO-31; [2]) was 77.6 µM. For the same molecule, the TGI (UO-31; read-out: pTGI (converted)) was 5.01 µM, the GI50 (OVCAR-4) was 2.4 µM and the CC50 (OVCAR-4; [2]) was over 100 µM. It also gave a TGI (OVCAR-4; read-out: pTGI (converted)) of 7.94 µM, a GI50 (HCT-15) of 1.66 µM and a CC50 (HCT-15; [2]) of over 100 µM. The TGI (HCT-15; read-out: pTGI (converted)) was 5.25 µM, the inhibition (C6) was “Active” and the inhibition of growth at 10 µM (IGROV-1) was 100%. The pKi (Dihydrofolate reductase) was 7.04, the GI50 (A549) was 2.45 µM and the CC50 (A549; [2]) was over 100 µM. The TGI (A549; read-out: pTGI (converted)) was 7.24 µM, the GI50 (CAKI-1) was 1.82 µM and the CC50 (CAKI-1; [2]) was over 100 µM. For the same molecule, the TGI (CAKI-1; read-out: pTGI (converted)) was 8.32 µM, the inhibition of growth at 10 µM (HT-29) was 100% and the GI50 (SW-620; read-out: GI50) was 0.83 µM. The CC50 (SW-620; [3]) was over 100 µM, the GI50 (SW-620; read-out: pGI50 (converted)) was 0.832 µM and the CC50 (SW-620; [2]) was over 100 µM. It also gave a TGI (SW-620; read-out: pTGI (converted)) of 12.9 µM, a GI50 (ACHN; read-out: GI50) of 0.89 µM and a CC50 (ACHN; [3]) of over 100 µM. For the same molecule, the GI50 (ACHN; read-out: pGI50 (converted)) was 0.891 µM, the CC50 (ACHN; [2]) was over 100 µM and the TGI (ACHN; read-out: pTGI (converted)) was 3.89 µM. The GI50 (NCI-H522) was 1.62 µM, the CC50 (NCI-H522; [2]) was 8.71 µM and the TGI (NCI-H522; read-out: pTGI (converted)) was 3.72 µM. It also gave a GI50 (OVCAR-8) of 1.26 µM, a CC50 (OVCAR-8; [2]) of 41.7 µM and a TGI (OVCAR-8; read-out: pTGI (converted)) of 5.37 µM. The GI50 (SNB-19) was 2.29 µM, the CC50 (SNB-19; [2]) was 28.2 µM and the TGI (SNB-19; read-out: pTGI (converted)) was 7.76 µM. For the same molecule, the GI50 (MDA-MB-435) was 1.62 µM, the CC50 (MDA-MB-435; [2]) was 6.61 µM and the TGI (MDA-MB-435; read-out: pTGI (converted)) was 3.24 µM.
